The values that follow come from patent publication US9938273B2 (Plexxikon Inc., priority 2015, dated 2018).

Holding throughout (type): biochemical
In test [1] the target is T1, FLT3-ITD (Homo sapiens, UniProt P36888).
T1 sequence (P36888 1-993): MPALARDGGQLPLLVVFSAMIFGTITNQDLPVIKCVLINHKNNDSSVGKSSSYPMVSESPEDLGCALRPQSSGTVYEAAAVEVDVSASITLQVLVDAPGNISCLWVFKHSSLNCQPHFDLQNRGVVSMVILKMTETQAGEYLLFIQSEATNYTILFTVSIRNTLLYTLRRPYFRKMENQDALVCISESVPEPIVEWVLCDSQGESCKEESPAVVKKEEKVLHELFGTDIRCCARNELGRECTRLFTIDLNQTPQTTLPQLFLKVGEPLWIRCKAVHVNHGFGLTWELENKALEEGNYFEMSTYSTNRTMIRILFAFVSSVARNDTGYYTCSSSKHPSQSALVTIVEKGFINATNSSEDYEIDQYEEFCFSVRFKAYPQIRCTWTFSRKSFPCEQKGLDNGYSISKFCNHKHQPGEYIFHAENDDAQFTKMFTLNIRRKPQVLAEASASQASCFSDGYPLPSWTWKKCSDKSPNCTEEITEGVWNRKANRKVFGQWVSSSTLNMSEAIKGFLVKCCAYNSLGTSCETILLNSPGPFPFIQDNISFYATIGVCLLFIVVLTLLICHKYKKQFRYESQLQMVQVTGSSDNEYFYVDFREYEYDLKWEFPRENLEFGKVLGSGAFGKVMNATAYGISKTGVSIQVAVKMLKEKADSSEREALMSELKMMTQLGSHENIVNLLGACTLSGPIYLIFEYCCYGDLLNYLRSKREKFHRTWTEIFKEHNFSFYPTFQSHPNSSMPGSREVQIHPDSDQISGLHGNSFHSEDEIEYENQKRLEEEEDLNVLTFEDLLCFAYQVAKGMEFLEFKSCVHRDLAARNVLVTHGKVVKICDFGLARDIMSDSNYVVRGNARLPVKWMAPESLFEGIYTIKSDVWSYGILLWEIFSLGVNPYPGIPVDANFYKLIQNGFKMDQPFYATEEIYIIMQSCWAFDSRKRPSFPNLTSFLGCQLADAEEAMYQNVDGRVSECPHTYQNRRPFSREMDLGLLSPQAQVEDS
As to the kind of experiment: AlphaScreen kinase assay with recombinant enzyme, FLT3-ITD. Particulars: 8pt; read-out: FLT3_ITD 8pt: IC50. A digest of the protocol:
(§1)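 Recombinant kinase phosphorylates biotinylated poly(Glu4-Tyr) peptide (30 nM final); streptavidin donor and anti-phosphotyrosine PY20 acceptor beads (10 μg/mL final) give a 580 nm proximity signal on 680 nm excitation. IC50 determinations used a final concentration of 10 μM for FLT3-D835Y/FLT3-ITD and 100 μM for c-KIT.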

In test [2] the target is T2, FLT3-D835Y (Homo sapiens, UniProt P36888, D835Y).
T2 construct: purchased Invitrogen PV3967
T2 sequence (P36888 27-993 D835Y): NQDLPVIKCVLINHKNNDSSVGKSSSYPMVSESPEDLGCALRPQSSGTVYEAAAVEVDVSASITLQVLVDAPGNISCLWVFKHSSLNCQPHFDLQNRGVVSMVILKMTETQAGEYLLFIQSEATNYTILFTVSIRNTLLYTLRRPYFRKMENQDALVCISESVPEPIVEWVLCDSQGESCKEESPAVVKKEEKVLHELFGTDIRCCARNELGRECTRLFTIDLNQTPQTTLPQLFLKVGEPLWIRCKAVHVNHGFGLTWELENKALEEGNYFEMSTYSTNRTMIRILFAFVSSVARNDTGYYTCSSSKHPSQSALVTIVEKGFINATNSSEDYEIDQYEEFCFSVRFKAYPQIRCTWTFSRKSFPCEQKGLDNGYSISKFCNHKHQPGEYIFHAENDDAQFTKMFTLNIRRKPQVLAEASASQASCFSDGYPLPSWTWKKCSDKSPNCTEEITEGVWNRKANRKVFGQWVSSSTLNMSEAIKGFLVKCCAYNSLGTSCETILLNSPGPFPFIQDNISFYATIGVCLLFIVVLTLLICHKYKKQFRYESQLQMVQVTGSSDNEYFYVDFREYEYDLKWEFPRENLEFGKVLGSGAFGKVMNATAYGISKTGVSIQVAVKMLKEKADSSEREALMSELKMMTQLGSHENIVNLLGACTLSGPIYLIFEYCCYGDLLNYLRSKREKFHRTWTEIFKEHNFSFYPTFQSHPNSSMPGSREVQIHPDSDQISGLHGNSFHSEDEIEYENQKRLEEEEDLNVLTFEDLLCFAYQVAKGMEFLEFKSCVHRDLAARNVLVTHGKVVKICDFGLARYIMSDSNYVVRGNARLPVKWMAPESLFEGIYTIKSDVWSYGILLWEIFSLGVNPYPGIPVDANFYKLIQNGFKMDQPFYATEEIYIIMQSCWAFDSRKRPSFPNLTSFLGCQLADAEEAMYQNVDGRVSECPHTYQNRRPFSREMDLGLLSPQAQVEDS
As to the kind of experiment: AlphaScreen kinase assay with recombinant enzyme, FLT3-D835Y. Particulars: 8pt, GMean. In a few lines: as §1
For orientation: In Alpha technology, singlet oxygen from a donor bead excites a nearby acceptor bead.

Test [3] addresses T3, c-KIT (Homo sapiens, UniProt P10721).
T3 construct: purchased Millipore 14-559K
As to the kind of experiment: AlphaScreen kinase assay with recombinant enzyme, c-KIT. The conditions noted are these: 100ATP, 8pt, GMean. In a few lines:
as §1

T3 sequence (P10721 26-976): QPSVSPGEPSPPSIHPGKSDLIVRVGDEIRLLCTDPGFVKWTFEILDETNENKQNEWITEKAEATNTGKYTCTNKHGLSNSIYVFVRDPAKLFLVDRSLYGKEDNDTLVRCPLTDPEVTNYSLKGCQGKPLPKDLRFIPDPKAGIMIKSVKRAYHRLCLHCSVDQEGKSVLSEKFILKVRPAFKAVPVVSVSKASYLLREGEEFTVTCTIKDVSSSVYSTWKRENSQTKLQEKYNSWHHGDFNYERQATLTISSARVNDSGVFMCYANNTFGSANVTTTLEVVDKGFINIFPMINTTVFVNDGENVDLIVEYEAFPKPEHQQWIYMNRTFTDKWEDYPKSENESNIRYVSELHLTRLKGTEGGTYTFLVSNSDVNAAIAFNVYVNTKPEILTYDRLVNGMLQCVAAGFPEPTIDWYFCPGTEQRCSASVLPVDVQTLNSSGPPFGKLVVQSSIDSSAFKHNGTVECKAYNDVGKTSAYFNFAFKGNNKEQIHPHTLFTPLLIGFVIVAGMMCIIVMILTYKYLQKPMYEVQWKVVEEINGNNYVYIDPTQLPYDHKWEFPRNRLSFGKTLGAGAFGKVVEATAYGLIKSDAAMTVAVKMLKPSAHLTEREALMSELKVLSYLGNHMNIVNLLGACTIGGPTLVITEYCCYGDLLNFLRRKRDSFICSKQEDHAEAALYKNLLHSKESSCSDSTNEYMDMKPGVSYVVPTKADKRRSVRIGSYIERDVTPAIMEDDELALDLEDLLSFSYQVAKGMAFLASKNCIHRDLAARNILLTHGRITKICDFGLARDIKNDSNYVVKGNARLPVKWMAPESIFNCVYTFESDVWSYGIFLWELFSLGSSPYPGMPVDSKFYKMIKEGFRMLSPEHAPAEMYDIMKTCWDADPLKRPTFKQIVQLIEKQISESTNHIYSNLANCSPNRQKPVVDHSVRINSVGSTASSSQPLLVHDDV

`NC1CCC(NC(=O)c2cccc(-c3cnc4[nH]c(-c5ccccc5)cc4c3)n2)CC1` (stereo not drawn) [Compound P-0018, N-(4-aminocyclohexyl)-6-(2-phenyl-1H-pyrrolo[2,3-b]pyridin-5-yl)pyridine-2-carboxamide]: the half-inhibitory concentration (IC50) in test [1], in test [2] and in test [3] was 0.0001 to 10 µM each time.

For the molecule `CC(=O)NC1CCN(C(=O)c2cccc(-c3cnc4[nH]c(-c5ccccc5)cc4c3)n2)CC1` [Compound P-0020, N-[1-[6-(2-phenyl-1H-pyrrolo[2,3-b]pyridin-5-yl)pyridine-2-carbonyl]-4-piperidyl]acetamide], the concentration for half-maximal inhibition (IC50) in test [1], in test [2] and in test [3] was 0.0001 to 10 µM throughout.

In the case of `CN1CCC(NC(=O)c2n[nH]c3ccc(-c4cnc5[nH]c(-c6ccccc6)cc5c4)cc23)CC1` [Compound P-0022, N-(1-methyl-4-piperidyl)-5-(2-phenyl-1H-pyrrolo[2,3-b]pyridin-5-yl)-1H-indazole-3-carboxamide], the IC50 in test [1], in test [2] and in test [3] was 0.0001 to 10 µM throughout.

For the molecule `O=C(c1cccc(-c2cnc3[nH]c(-c4ccccc4)cc3c2)n1)N1CCC(CO)CC1` [Compound P-0023, [4-(hydroxymethyl)-1-piperidyl]-[6-(2-phenyl-1H-pyrrolo[2,3-b]pyridin-5-yl)-2-pyridyl]methanone], the IC50 in test [1] was in the range of 0.0001 to 10 µM; in test [2], 0.0001 to 10 µM; in test [3], 50 to 100 µM.

Consider `CCOC(=O)C1CCN(C(=O)c2cccc(-c3cnc4[nH]c(-c5ccccc5)cc4c3)n2)CC1` [Compound P-0025, ethyl 1-[6-(2-phenyl-1H-pyrrolo[2,3-b]pyridin-5-yl)pyridine-2-carbonyl]piperidine-4-carboxylate], for which the IC50 in test [1], in test [2] and in test [3] was 0.0001 to 10 µM throughout.

Regarding `NCC1CCN(C(=O)c2cccc(-c3cnc4[nH]c(-c5ccccc5)cc4c3)n2)CC1` [Compound P-0026, [4-(aminomethyl)-1-piperidyl]-[6-(2-phenyl-1H-pyrrolo[2,3-b]pyridin-5-yl)-2-pyridyl]methanone], the IC50 in test [1], in test [2] and in test [3] was 0.0001 to 10 µM throughout.

`CC1CCN(C(=O)c2n[nH]c3ccc(-c4cnc5[nH]c(-c6ccccc6)cc5c4)cc23)CC1` [Compound P-0027, (4-methyl-1-piperidyl)-[5-(2-phenyl-1H-pyrrolo[2,3-b]pyridin-5-yl)-1H-indazol-3-yl]methanone]: the results for the IC50 in test [1], in test [2] and in test [3] were 10 to 50 µM, 0.0001 to 10 µM and 50 to 100 µM, respectively.

Turning to `CNC1CCN(C(=O)c2n[nH]c3ccc(-c4cnc5[nH]c(-c6ccccc6)cc5c4)cc23)C1` (stereo not drawn) [Compound P-0028, [3-(methylamino)pyrrolidin-1-yl]-[5-(2-phenyl-1H-pyrrolo[2,3-b]pyridin-5-yl)-1H-indazol-3-yl]methanone], the IC50 in test [1], in test [2] and in test [3] was 0.0001 to 10 µM throughout.

As to `CNC1CCN(C(=O)c2cccc(-c3cnc4[nH]c(-c5ccccc5)cc4c3)n2)C1` (stereo not drawn) [Compound P-0040, [3-(methylamino)pyrrolidin-1-yl]-[6-(2-phenyl-1H-pyrrolo[2,3-b]pyridin-5-yl)-2-pyridyl]methanone], the half-maximal inhibitory concentration (IC50) in test [1], in test [2] and in test [3] was 0.0001 to 10 µM throughout.

As to `CNC1CCN(C(=O)c2cccc(-c3cnc4[nH]c(-c5cn(C)nc5C)cc4c3)n2)C1` (stereo not drawn) [Compound P-0049, [6-[2-(1,3-dimethylpyrazol-4-yl)-1H-pyrrolo[2,3-b]pyridin-5-yl]-2-pyridyl]-[3-(methylamino)pyrrolidin-1-yl]methanone], the IC50 in test [1], in test [2] and in test [3] was 0.0001 to 10 µM each time.

`c1ccc(-c2cc3cc(-c4cccc(OC5CCNCC5)n4)cnc3[nH]2)cc1` [Compound P-0050, 2-phenyl-5-[6-(4-piperidyloxy)-2-pyridyl]-1H-pyrrolo[2,3-b]pyridine]: the IC50 in test [1], in test [2] and in test [3] was 0.0001 to 10 µM throughout.

For `CNC1CN(C(=O)c2cccc(-c3cnc4[nH]c(-c5ccccc5)cc4c3)n2)C1` [Compound P-0052, [3-(methylamino)azetidin-1-yl]-[6-(2-phenyl-1H-pyrrolo[2,3-b]pyridin-5-yl)-2-pyridyl]methanone], the IC50 in test [1], in test [2] and in test [3] was 0.0001 to 10 µM each time.

Turning to `N[C@H]1CCN(C(=O)c2ncc(-c3cnc4[nH]c(-c5ccccc5)cc4c3)s2)C1` [Compound P-0054, [(3S)-3-aminopyrrolidin-1-yl]-[5-(2-phenyl-1H-pyrrolo[2,3-b]pyridin-5-yl)thiazol-2-yl]methanone], the half-maximal inhibitory concentration (IC50) in test [1], in test [2] and in test [3] was 0.0001 to 10 µM in each case.

Turning to `CNC1CCN(C(=O)c2cccc(-c3cnc4[nH]c(-c5ccc(F)cc5)cc4c3)n2)C1` (stereo not drawn) [Compound P-0055, [6-[2-(4-fluorophenyl)-1H-pyrrolo[2,3-b]pyridin-5-yl]-2-pyridyl]-[3-(methylamino)pyrrolidin-1-yl]methanone], the 50% inhibitory concentration (IC50) in test [1], in test [2] and in test [3] was 0.0001 to 10 µM throughout.

For `CN[C@@H]1CCN(C(=O)c2cccc(-c3cnc4[nH]c(-c5ccccc5)cc4c3)n2)C1` [Compound P-0058, [(3R)-3-(methylamino)pyrrolidin-1-yl]-[6-(2-phenyl-1H-pyrrolo[2,3-b]pyridin-5-yl)-2-pyridyl]methanone], the IC50 in test [1], in test [2] and in test [3] was 0.0001 to 10 µM in each case.

`CNC1CCN(C(=O)c2cccc(-c3cnc4[nH]c(-c5ccnc(OC)c5)cc4c3)n2)C1` (stereo not drawn) [Compound P-0060, [6-[2-(2-methoxy-4-pyridyl)-1H-pyrrolo[2,3-b]pyridin-5-yl]-2-pyridyl]-[3-(methylamino)pyrrolidin-1-yl]methanone]: the IC50 in test [1], in test [2] and in test [3] was 0.0001 to 10 µM in each case.

Consider `CNC1CCN(C(=O)c2cccc(-c3cnc4[nH]c(-c5cnn(CC(F)(F)F)c5)cc4c3)n2)C1` (stereo not drawn) [Compound P-0061, [3-(methylamino)pyrrolidin-1-yl]-[6-[2-[1-(2,2,2-trifluoroethyl)pyrazol-4-yl]-1H-pyrrolo[2,3-b]pyridin-5-yl]-2-pyridyl]methanone], for which the IC50 in test [1] fell in the range of 0.0001 to 10 µM; in test [2], 0.0001 to 10 µM; in test [3], 10 to 50 µM.

For the molecule `CNC1CCN(C(=O)c2cccc(-c3cnc4[nH]c(-c5cccc(C#N)c5)cc4c3)n2)C1` (stereo not drawn) [Compound P-0062, 3-[5-[6-[3-(methylamino)pyrrolidine-1-carbonyl]-2-pyridyl]-1H-pyrrolo[2,3-b]pyridin-2-yl]benzonitrile], the IC50 lay in the range of 0.0001 to 10 µM in test [1], 0.0001 to 10 µM in test [2] and 10 to 50 µM in test [3].

The term IC50 denotes the point on the concentration scale where inhibition reaches its midpoint.
